This note sets out measurements from patent US8598211B2, “Carboxamide compounds and their use as calpain inhibitors IV” (AbbVie Inc., priority 2009, dated 2013).

Structures are written as SMILES. Bounds are passed on as bounds.

T2 sequence (P07711 114-333): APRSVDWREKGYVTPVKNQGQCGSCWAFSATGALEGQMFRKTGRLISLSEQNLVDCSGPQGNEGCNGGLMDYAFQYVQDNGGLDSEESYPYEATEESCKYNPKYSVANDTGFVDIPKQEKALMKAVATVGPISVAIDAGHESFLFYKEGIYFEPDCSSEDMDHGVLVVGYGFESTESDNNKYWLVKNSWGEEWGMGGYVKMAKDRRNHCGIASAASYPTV

The first assay concerns the target T1, calpain-I (Homo sapiens, UniProt P07384).
T1 construct: calpain-I—isolated from human erythrocytes; purchased Calbiochem 208713; host or cells: human erythrocytes (natural source)
T1 sequence (P07384 1-714): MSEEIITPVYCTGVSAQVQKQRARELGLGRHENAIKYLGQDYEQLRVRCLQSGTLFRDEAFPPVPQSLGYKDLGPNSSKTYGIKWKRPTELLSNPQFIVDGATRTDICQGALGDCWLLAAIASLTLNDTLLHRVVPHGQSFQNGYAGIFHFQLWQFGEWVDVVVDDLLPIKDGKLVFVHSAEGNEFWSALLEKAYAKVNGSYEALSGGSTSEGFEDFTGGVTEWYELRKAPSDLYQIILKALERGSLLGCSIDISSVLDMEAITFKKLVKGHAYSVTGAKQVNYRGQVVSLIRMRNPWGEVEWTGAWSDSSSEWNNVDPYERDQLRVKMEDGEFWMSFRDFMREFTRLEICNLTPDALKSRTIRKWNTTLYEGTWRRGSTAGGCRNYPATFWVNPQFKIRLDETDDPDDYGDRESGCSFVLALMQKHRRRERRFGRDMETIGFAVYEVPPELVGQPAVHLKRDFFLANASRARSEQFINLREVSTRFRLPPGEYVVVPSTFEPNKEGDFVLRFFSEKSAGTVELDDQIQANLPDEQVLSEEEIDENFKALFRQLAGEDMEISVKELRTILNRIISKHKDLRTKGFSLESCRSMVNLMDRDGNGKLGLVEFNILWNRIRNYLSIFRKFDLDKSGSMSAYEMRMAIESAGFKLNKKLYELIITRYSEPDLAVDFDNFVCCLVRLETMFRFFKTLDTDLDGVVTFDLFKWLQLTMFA
T1 sequence (P04632 1-268 partner): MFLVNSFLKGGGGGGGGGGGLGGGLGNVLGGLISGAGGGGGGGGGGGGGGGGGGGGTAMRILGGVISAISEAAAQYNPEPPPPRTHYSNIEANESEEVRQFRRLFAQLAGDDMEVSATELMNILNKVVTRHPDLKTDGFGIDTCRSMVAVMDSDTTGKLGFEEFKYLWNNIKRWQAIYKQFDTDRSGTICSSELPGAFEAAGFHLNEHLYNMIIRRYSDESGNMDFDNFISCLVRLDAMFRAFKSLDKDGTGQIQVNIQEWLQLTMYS
The assay can be described thus: Calpain I kinetic fluorescence enzyme inhibition assay. The assay is classed as biochemical. The following applies: calpain-I from human erythrocytes, Suc-Leu-Tyr-AMC, pH 7.3; apparent Ki from IC50 by Cheng-Prussoff. On the procedure: Testing for blockade of the corresponding enzymic activities was carried out by means of kinetic fluorescence assays (excitation 390 nm, emission 460 nm).
Apparent Ki values were calculated from the experimentally determined IC50 values by the Cheng-Prussoff relation assuming a reversible competitive enzyme inhibition.
20 nM calpain-I—isolated from human erythrocytes (Calbiochem #208713), 100 μM Suc-Leu-Tyr-AMC (Bachem #I-1355) as substrate in buffer with 62 mM imidazole, 0.3 mM CaCl2, 0.10% CHAPS, 0.05% BSA, 1 mM DTT at pH 7.3 and room temperature.
Take `O=C(NCc1ccccn1)C(=O)C(Cc1ccccc1)NC(=O)c1cccnc1-n1ccc(-c2ccc(F)cc2)n1` (stereo not drawn) [Example 2, N-{3,4-Dioxo-1-phenyl-4-[(pyridin-2-ylmethyl)amino]butan-2-yl}-2-[3-(4-fluorophenyl)-1H-pyrazol-1-yl]pyridine-3-carboxamide]: the Ki lay within 250 to 400 nM.

In the case of `O=C(NCCCc1ccccn1)C(=O)C(Cc1ccccc1)NC(=O)c1cccnc1-n1ccc(-c2ccc(F)cc2)n1` (stereo not drawn) [Example 4, N-(3,4-Dioxo-1-phenyl-4-{[3-(pyridin-2-yl)propyl]amino}butan-2-yl)-2-[3-(4-fluorophenyl)-1H-pyrazol-1-yl]pyridine-3-carboxamide], the Ki is under 250 nM.

As to `O=C(NC1CC1)C(=O)C(Cc1ccccc1)NC(=O)c1cccnc1-n1ccc(-c2ccccc2)n1` (stereo not drawn) [Example 5, N-[4-(Cyclopropylamino)-3,4-dioxo-1-phenylbutan-2-yl]-2-(3-phenyl-1H-pyrazol-1-yl)pyridine-3-carboxamide], the Ki is under 250 nM.

Turning to `C=CCNC(=O)C(=O)C(Cc1ccccc1)NC(=O)c1cccnc1-n1ccc(-c2ccccc2)n1` (stereo not drawn) [Example 6, N-[3,4-Dioxo-1-phenyl-4-(prop-2-en-1-ylamino)butan-2-yl]-2-(3-phenyl-1H-pyrazol-1-yl)pyridine-3-carboxamide], the Ki lay in the range of 400 to 800 nM.

Turning to `CNC(=O)C(=O)C(Cc1ccccc1)NC(=O)c1cccnc1-n1ccc(-c2ccccc2)n1` (stereo not drawn) [Example 7, N-(4-(Methylamino)-3,4-dioxo-1-phenylbutan-2-yl)-2-(3-phenyl-1H-pyrazol-1-yl)nicotinamide, reference compound], the Ki was 250 to 400 nM.

`O=C(NCc1ccccn1)C(=O)C(Cc1ccccc1)NC(=O)c1cccnc1-n1ccc(-c2ccccc2)n1` (stereo not drawn) [Example 8, N-[4-(Pyridin-2-ylmethylamino)-3,4-dioxo-1-phenylbutan-2-yl]-2-(3-phenyl-1H-pyrazol-1-yl)pyridine-3-carboxamide]: the Ki is under 250 nM.

On to `O=C(NCC1CC1)C(=O)C(Cc1ccccc1)NC(=O)c1cccnc1-n1ccc(-c2ccccc2)n1` (stereo not drawn) [Example 9, N-(4-(Cyclopropylmethylamino)-3,4-dioxo-1-phenylbutan-2-yl)-2-(3-phenyl-1H-pyrazol-1-yl)nicotinamide], for which the Ki fell in the range of 400 to 800 nM.

On to `O=C(NC1CCC1)C(=O)C(Cc1ccccc1)NC(=O)c1cccnc1-n1ccc(-c2ccccc2)n1` (stereo not drawn) [Example 10, N-(4-(Cyclobutylamino)-3,4-dioxo-1-phenylbutan-2-yl)-2-(3-phenyl-1H-pyrazol-1-yl)nicotinamide], for which the Ki lay within 400 to 800 nM.

Regarding `CCCNC(=O)C(=O)C(Cc1ccccc1)NC(=O)c1cccnc1-n1ccc(-c2ccccc2)n1` (stereo not drawn) [Example 11, N-(3,4-Dioxo-1-phenyl-4-(propylamino)butan-2-yl)-2-(3-phenyl-1H-pyrazol-1-yl)nicotinamide], the Ki fell in the range of 400 to 800 nM.

Take `O=C(NC1CC1)C(=O)C(Cc1ccccc1)NC(=O)c1cccnc1-n1cc(F)c(-c2ccccc2)n1` (stereo not drawn) [Example 12, N-(4-(Cyclopropylamino)-3,4-dioxo-1-phenylbutan-2-yl)-2-(4-fluoro-3-phenyl-1H-pyrazol-1-yl)nicotinamide]: the Ki is 400 to 800 nM.

In the case of `O=C(NC1CC1)C(=O)C(Cc1ccc(F)cc1)NC(=O)c1cccnc1-n1ccc(-c2ccccc2)n1` (stereo not drawn) [Example 13, N-(4-(Cyclopropylamino)-1-(4-fluorophenyl)-3,4-dioxobutan-2-yl)-2-(3-phenyl-1H-pyrazol-1-yl)nicotinamide], the Ki fell in the range of 400 to 800 nM.

With `O=C(NC1CC1)C(=O)C(Cc1cccc(F)c1)NC(=O)c1cccnc1-n1ccc(-c2ccccc2)n1` (stereo not drawn) [Example 14, N-(4-(Cyclopropylamino)-1-(3-fluorophenyl)-3,4-dioxobutan-2-yl)-2-(3-phenyl-1H-pyrazol-1-yl)nicotinamide], the Ki was in the range of 250 to 400 nM.

Consider `O=C(NCc1nc2ccccc2o1)C(=O)C(Cc1ccccc1)NC(=O)c1cccnc1-n1ccc(-c2ccccc2)n1` (stereo not drawn) [Example 15, N-{4-[(1,3-Benzoxazol-2-ylmethyl)amino]-3,4-dioxo-1-phenylbutan-2-yl}-2-(3-phenyl-1H-pyrazol-1-yl)pyridine-3-carboxamide], for which the Ki was under 250 nM.

For the molecule `O=C(NCc1ccccc1)C(=O)C(Cc1ccccc1)NC(=O)c1cccnc1-n1ccc(-c2ccccc2)n1` (stereo not drawn) [Example 16, N-(4-(Benzylamino)-3,4-dioxo-1-phenylbutan-2-yl)-2-(3-phenyl-1H-pyrazol-1-yl)nicotinamide], the Ki was under 250 nM.

Regarding `O=C(NCCc1ccccc1)C(=O)C(Cc1ccccc1)NC(=O)c1cccnc1-n1ccc(-c2ccccc2)n1` (stereo not drawn) [Example 17, N-(3,4-Dioxo-4-(phenethylamino)-1-phenylbutan-2-yl)-2-(3-phenyl-1H-pyrazol-1-yl)nicotinamide], the Ki was 250 to 400 nM.

Turning to `NC(=O)C(=O)C(Cc1ccccc1)NC(=O)c1cccnc1-n1ccc(-c2ccc(F)cc2)n1` (stereo not drawn) [Example 18, N-(3-Amino-1-benzyl-2,3-dioxopropyl)-2-[3-(4-fluorophenyl)-1H-pyrazol-1-yl]nicotinamide, reference compound], the Ki was under 250 nM.

Take `O=C(NC1CC1)C(=O)C(Cc1ccccc1)NC(=O)c1cccnc1-n1ccc(-c2ccc(F)cc2)n1` (stereo not drawn) [Example 19, N-[4-(Cyclopropylamino)-3,4-dioxo-1-phenyl-2-butanyl]-2-[3-(4-fluorophenyl)-1H-pyrazol-1-yl]nicotinamide]: the Ki is 800 to 1000 nM.

`COC(=O)CNC(=O)C(=O)C(Cc1ccccc1)NC(=O)c1cccnc1-n1ccc(-c2ccccc2)n1` (stereo not drawn) [Example 21, Methyl N-[2-oxo-4-phenyl-3-({[2-(3-phenyl-1H-pyrazol-1-yl)-3-pyridinyl]carbonyl}amino)butanoyl]glycinat]: the Ki was under 250 nM.

Regarding `O=C(NC1CC1)C(=O)C(Cc1ccc(OCCN2CCOCC2)cc1)NC(=O)c1cccnc1-n1ccc(-c2ccccc2)n1` (stereo not drawn) [Example 23, N-[4-(Cyclopropylamino)-1-{4-[2-(4-morpholinyl)ethoxy]phenyl}-3,4-dioxo-2-butanyl]-2-(3-phenyl-1H-pyrazol-1-yl)nicotinamide], the Ki lay in the range of 400 to 800 nM.

Regarding `O=C(NCc1ncco1)C(=O)C(Cc1ccccc1)NC(=O)c1cccnc1-n1ccc(-c2ccccc2)n1` (stereo not drawn) [Example 24, N-{4-[(1,3-Oxazol-2-ylmethyl)amino]-3,4-dioxo-1-phenyl-2-butanyl}-2-(3-phenyl-1H-pyrazol-1-yl)nicotinamide], the Ki was 250 to 400 nM.

For the molecule `O=C(NC1CC1)C(=O)C(Cc1ccc(CN2CCOCC2)cc1)NC(=O)c1cccnc1-n1ccc(-c2ccccc2)n1` (stereo not drawn) [Example 25, N-{4-(Cyclopropylamino)-1-[4-(4-morpholinylmethyl)phenyl]-3,4-dioxo-2-butanyl}-2-(3-phenyl-1H-pyrazol-1-yl)nicotinamide], the Ki was 400 to 800 nM.

The next assay concerns the target T2, cathepsin L (Homo sapiens, UniProt P07711).
T2 construct: cathepsin L—isolated from human liver; purchased Calbiochem 219402; host or cells: human liver (natural source)
The assay can be described thus: Cathepsin L kinetic fluorescence enzyme inhibition assay. It counts as biochemical. Conditions: selectivity ratio versus calpain.
Description: 1 nM cathepsin L—isolated from human liver (Calbiochem #219402), 2 μM Z-Phe-Arg-AMC (Bachem #I-1160) as substrate in 50 mM MES, 2 mM EDTA, 0.05% Brij 35, 2.5 mM L-cysteine, pH 6.0, room temperature.
On to `O=C(NC1CC1)C(=O)C(Cc1ccc(OCCN2CCOCC2)cc1)NC(=O)c1cccnc1-n1ccc(-c2ccccc2)n1` (stereo not drawn) [Example 23, N-[4-(Cyclopropylamino)-1-{4-[2-(4-morpholinyl)ethoxy]phenyl}-3,4-dioxo-2-butanyl]-2-(3-phenyl-1H-pyrazol-1-yl)nicotinamide], for which the “Sel cat. L (Ki(cathepsin L)/Ki(calpain) ratio)” value is “++ (10<Ki(cathepsin L)/Ki(calpain)≦50)”.

The next assay deals with T3, cathepsin S (Homo sapiens, UniProt P25774).
T3 construct: purchased Calbiochem 219343; host or cells: E. coli
T3 sequence (P25774 115-331): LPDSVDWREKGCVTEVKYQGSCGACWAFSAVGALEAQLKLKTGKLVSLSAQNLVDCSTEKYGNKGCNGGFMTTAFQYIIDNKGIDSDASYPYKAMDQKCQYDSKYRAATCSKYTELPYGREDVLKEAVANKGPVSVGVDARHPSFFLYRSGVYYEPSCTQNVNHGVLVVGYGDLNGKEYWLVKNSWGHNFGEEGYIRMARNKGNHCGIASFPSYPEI
The assay is described as follows: Cathepsin S kinetic fluorescence enzyme inhibition assay. The following applies: selectivity ratio versus calpain. It counts as biochemical.
Description: 0.5 nM recombinant human cathepsin S from E. coli (Calbiochem #219343), 20 μM Z-Val-Val-Arg-AMC (Bachem #I-1540) as substrate in 50 mM MES, 2 mM EDTA, 0.05% Brij 35, 2.5 mM L-cysteine, pH 6.0, room temperature.
As for `O=C(NC1CC1)C(=O)C(Cc1ccc(OCCN2CCOCC2)cc1)NC(=O)c1cccnc1-n1ccc(-c2ccccc2)n1` (stereo not drawn) [Example 23, N-[4-(Cyclopropylamino)-1-{4-[2-(4-morpholinyl)ethoxy]phenyl}-3,4-dioxo-2-butanyl]-2-(3-phenyl-1H-pyrazol-1-yl)nicotinamide], the “Sel cat. S (Ki(cathepsin S)/Ki(calpain) ratio)” value is recorded as “++ (10<Ki(cathepsin S)/Ki(calpain)≦50)”.

In the case of `O=C(NC1CC1)C(=O)C(Cc1ccc(CN2CCOCC2)cc1)NC(=O)c1cccnc1-n1ccc(-c2ccccc2)n1` (stereo not drawn) [Example 25, N-{4-(Cyclopropylamino)-1-[4-(4-morpholinylmethyl)phenyl]-3,4-dioxo-2-butanyl}-2-(3-phenyl-1H-pyrazol-1-yl)nicotinamide], the “Sel cat. S (Ki(cathepsin S)/Ki(calpain) ratio)” value is “++ (10<Ki(cathepsin S)/Ki(calpain)≦50)”.
